# From ChEMBL document CHEMBL3621192, “Novel anti-HIV-1 NNRTIs based on a pyrazolo[4,3-d]isoxazole backbone scaffold: design, synthesis and insights into the molecular basis of action” (Medchemcomm, 2014)
# Legend:
# [1] = Therapeutic index, ratio of CC50 for human MT4 cells to EC50 for HIV1 3B infected in MT4 cells; format: cell-based; details: read-out: Ratio CC50/EC50
# [2] = Cytotoxicity against human MT4 cells by MTT assay; format: cell-based
# [3] = Cytotoxicity against human CEM-SS cells by MTS assay; format: cell-based
# [4] = Metabolic stability in rat plasma assessed as half life; format: ADME, cell-free
# [5] = target: Human immunodeficiency virus type 1 reverse transcriptase (Human immunodeficiency virus 1, UniProt Q72547); assay: Inhibition of HIV1 recombinant reverse transcriptase assessed as incorporation of [32P]GTP into poly(rC).oligo(dG) template primer
# [6] = Therapeutic index, ratio of CC50 for human CEM-SS cells to EC50 for HIV1 RF infected in CEM-SS cells; format: cell-based; details: read-out: Ratio CC50/EC50
# [7] = test system: Human immunodeficiency virus 1; assay: Antiviral activity against HIV1 3B infected in MT4 cells assessed as inhibition of virus-induced cytopathic effect by MTT assay; format: functional, organism-based; details: Human immunodeficiency virus 1, 3B
# [8] = test system: Human immunodeficiency virus 1; assay: Antiviral activity against HIV1 RF infected in CEM-SS cells assessed as inhibition of virus-induced cytopathic effect by MTS assay; format: functional, organism-based; details: Human immunodeficiency virus 1, RF
SMILES,half-life [4] [h],IC50 [5] [nM],selectivity ratio [1],CC50 [2] [nM],CC50 [3] [nM],selectivity ratio [6],EC50 [7] [nM],EC50 [8] [nM]
NC(=S)N1Nc2onc(-c3ccccc3)c2C1c1ccc(Cl)cc1 (stereo unspecified),2.2,0.037,1210,340,360,462,0.28,0.78
Cc1csc(N2Nc3onc(-c4ccccc4)c3C2c2ccc(Cl)cc2)n1 (stereo unspecified),5.72,0.046,657,230,440,936,0.35,0.47
CC1=C(/N=N/c2ccc(C)cc2)N=C(N2Nc3onc(-c4ccccc4)c3C2c2ccc(Cl)cc2)NN1 (stereo unspecified),2.57,0.019,673,330,360,837,0.49,0.43
N/N=C(\N)N1Nc2onc(-c3ccccc3)c2C1c1ccc(Cl)cc1 (stereo unspecified),4.57,0.018,586,170,340,739,0.29,0.46
CC1=C(/N=N/c2ccccc2)N=C(N2Nc3onc(-c4ccccc4)c3C2c2ccc(Cl)cc2)NN1 (stereo unspecified),2.05,0.045,1360,450,230,523,0.33,0.44
O=C1Nc2ccc(Cl)cc2[C@@](C#CC2CC2)(C(F)(F)F)O1 [EFAVIRENZ],1.48,,,320,550,,0.98,0.92

# More lines, main results first:
half-life [4] [h],IC50 [5] [nM],SMILES,selectivity ratio [1],CC50 [2] [nM],CC50 [3] [nM],selectivity ratio [6],EC50 [7] [nM],EC50 [8] [nM]
7.57,0.035,Cc1nc(N2Nc3onc(-c4ccccc4)c3C2c2ccc(Cl)cc2)sc1/N=N/c1ccc(Cl)cc1 (stereo unspecified),739,340,330,917,0.46,0.36
3.9,0.036,COc1ccc(/N=N/c2sc(N3Nc4onc(-c5ccccc5)c4C3c3ccc(Cl)cc3)nc2C)cc1 (stereo unspecified),1050,460,340,971,0.44,0.35
4.07,0.016,Cc1nc(N2Nc3onc(-c4ccccc4)c3C2c2ccc(Cl)cc2)sc1/N=N/c1ccc(Br)cc1 (stereo unspecified),1440,390,140,412,0.27,0.34
4.42,0.019,Cc1nc(N2Nc3onc(-c4ccccc4)c3C2c2ccc(Cl)cc2)sc1/N=N/c1ccccc1 (stereo unspecified),867,260,450,833,0.3,0.54
4.05,0.028,CC1=C(/N=N/c2ccc(Cl)cc2)N=C(N2Nc3onc(-c4ccccc4)c3C2c2ccc(Cl)cc2)NN1 (stereo unspecified),1220,450,270,403,0.37,0.67
5.72,0.027,Cc1ccc(/N=N/c2sc(N3Nc4onc(-c5ccccc5)c4C3c3ccc(Cl)cc3)nc2C)cc1 (stereo unspecified),818,450,250,1000,0.55,0.25
6.08,0.027,Cc1nc(N2Nc3onc(-c4ccccc4)c3C2c2ccc(Cl)cc2)sc1/N=N/c1ccc([N+](=O)[O-])cc1 (stereo unspecified),1560,280,250,1000,0.18,0.25
